We go through 29 molecules from ChEMBL document CHEMBL1833972 (Bioorg Med Chem Lett, 2011).

SMILES strings stand for the structures. Converted amounts (≈) assume the structure as drawn. Where only a bound is given, the exact number is not on record here.

The first data set in a line: in vitro. The settings on record: human, liver microsomes.
Molecule `CN(C)CCN1CCN(c2ccc(Cn3c(=O)[nH]c4c(N)nc(C(F)(F)F)cc43)cn2)CC1` yielded a microsomal CLint below 8 µL/min/mg.
For the molecule `Nc1nc(C(F)(F)F)cc2c1[nH]c(=O)n2Cc1ccc(NCCO)nc1`, the intrinsic metabolic clearance (microsomal CLint) is below 8 µL/min/mg.
The same measure, in the same setting: to `CN(C)CCN(C)c1ccc(Cn2c(=O)[nH]c3c(N)nc(C(F)(F)F)cc32)cn1` belongs 16 µL/min/mg; to `Nc1nc(C(F)(F)F)cc2c1[nH]c(=O)n2Cc1ccc(NCCN2CCCC2)nc1`, 8.5 µL/min/mg; to `Nc1nc(C(F)(F)F)cc2c1[nH]c(=O)n2Cc1ccc(NCc2ccccc2)nc1`, below 8 µL/min/mg.
The same measure, in the same setting: to `CN1CCN(CCN(C)c2ccc(Cn3c(=O)[nH]c4c(N)nc(C(F)(F)F)cc43)cn2)CC1` belongs 25 µL/min/mg; to `CCN(CC)CCN(C)c1ccc(Cn2c(=O)[nH]c3c(N)nc(C(F)(F)F)cc32)cn1`, 24 µL/min/mg.
Same read-out and setting: to `Nc1nc(C(F)(F)F)cc2c1[nH]c(=O)n2Cc1ccc(NCCN2CCCCC2)nc1` belongs 13 µL/min/mg; to `CN(CCN1CCCCC1)c1ccc(Cn2c(=O)[nH]c3c(N)nc(C(F)(F)F)cc32)cn1`, 25 µL/min/mg; to `Nc1nc(C(F)(F)F)cc2c1[nH]c(=O)n2Cc1ccc(OCCN2CCCC2)nc1`, 10 µL/min/mg.
Molecule `CN(C)CCNc1ccc(Cn2c(=O)[nH]c3c(N)nc(C(F)(F)F)cc32)cn1` came in with a microsomal CLint of 9 µL/min/mg.
Still for that read-out and setting: then `CN(C)CCOc1ccc(Cn2c(=O)[nH]c3c(N)nc(C(F)(F)F)cc32)cn1`, with 22 µL/min/mg; and `COCCN1CCN(c2ccc(Cn3c(=O)[nH]c4c(N)nc(C(F)(F)F)cc43)cn2)CC1`, with 17 µL/min/mg.

A short description of a further data set: Solubility of the compound. In kind it is physicochemical.
Conditions: not given
Regarding `COCCCN1CCN(c2ccc(Cn3c(=O)[nH]c4c(N)nc(C(F)(F)F)cc43)cn2)CC1`, the solubility entry is reported as “soluble”.
Same read-out and setting: then `COCCNc1ccc(Cn2c(=O)[nH]c3c(N)nc(C(F)(F)F)cc32)cn1`, with “soluble”; and `CN1CCN(CC2CCCN2c2cc(Cn3c(=O)[nH]c4c(N)nc(C(F)(F)F)cc43)ccn2)CC1` (stereo unspecified), with “soluble”.
The same measure, in the same setting: then `COCCNc1ncccc1Cn1c(=O)[nH]c2c(N)nc(C(F)(F)F)cc21`, with “soluble”; and `COCCNc1cc(Cn2c(=O)[nH]c3c(N)nc(C(F)(F)F)cc32)ccn1`, with “soluble”.
Consider `Nc1nc(C(F)(F)F)cc2c1[nH]c(=O)n2Cc1cccnc1OCCN1CCCC1`, for which the solubility entry is “soluble”.
`Nc1nc(C(F)(F)F)cc2c1[nH]c(=O)n2Cc1cccnc1N1CCC[C@H]1CN1CCCC1`: the solubility result was “soluble”.
Same read-out and setting: to `COCCCN1CCN(c2ncccc2Cn2c(=O)[nH]c3c(N)nc(C(F)(F)F)cc32)CC1` belongs “soluble”; to `CN1CCN(CC2CCCN2c2ccc(Cn3c(=O)[nH]c4c(N)nc(C(F)(F)F)cc43)cn2)CC1` (stereo unspecified), “soluble”; to `Nc1nc(C(F)(F)F)cc2c1[nH]c(=O)n2Cc1ccnc(N2CCC[C@H]2CN2CCCC2)c1`, “soluble”.
Take `COCCN1CCN(c2cc(Cn3c(=O)[nH]c4c(N)nc(C(F)(F)F)cc43)ccn2)CC1`: the solubility result was “soluble”.
The same measure, in the same setting: to `Nc1nc(C(F)(F)F)cc2c1[nH]c(=O)n2Cc1ccnc(OCCN2CCCC2)c1` belongs “soluble”; to `CN1CCN(CC2CCCN2c2ncccc2Cn2c(=O)[nH]c3c(N)nc(C(F)(F)F)cc32)CC1` (stereo unspecified), “soluble”.
Same read-out and setting: then `Nc1nc(C(F)(F)F)cc2c1[nH]c(=O)n2Cc1ccc(N2CCC[C@H]2CN2CCCC2)nc1`, with “soluble”; and `COCCN1CCN(c2ncccc2Cn2c(=O)[nH]c3c(N)nc(C(F)(F)F)cc32)CC1`, with “soluble”.
On the same count and under the same terms, to `Nc1nc(C(F)(F)F)cc2c1[nH]c(=O)n2Cc1ccc(OCCN2CCCC2)nc1` belongs “soluble”; to `COCCCN1CCN(c2cc(Cn3c(=O)[nH]c4c(N)nc(C(F)(F)F)cc43)ccn2)CC1`, “soluble”.
Consider `COCCN1CCN(c2ccc(Cn3c(=O)[nH]c4c(N)nc(C(F)(F)F)cc43)cn2)CC1`, for which the solubility entry is recorded as “soluble”.

A further data set is described as follows: Lipophilicity, log D of the compound. Type of data set: physicochemical. Conditions: octanol/water.
For `CN(C)CCN1CCN(c2ccc(Cn3c(=O)[nH]c4c(N)nc(C(F)(F)F)cc43)cn2)CC1`, the logD worked out at 0.9.
Same read-out and setting: then `Nc1nc(C(F)(F)F)cc2c1[nH]c(=O)n2Cc1ccc(NCCO)nc1`, with 1.6; and `CN(C)CCN(C)c1ccc(Cn2c(=O)[nH]c3c(N)nc(C(F)(F)F)cc32)cn1`, with 1.2; and `Nc1nc(C(F)(F)F)cc2c1[nH]c(=O)n2Cc1ccc(NCCN2CCCC2)nc1`, with 0.8.
`Nc1nc(C(F)(F)F)cc2c1[nH]c(=O)n2Cc1ccc(NCc2ccccc2)nc1`: the logD was 1.8.
Same read-out and setting: to `CN1CCN(CCN(C)c2ccc(Cn3c(=O)[nH]c4c(N)nc(C(F)(F)F)cc43)cn2)CC1` belongs 1.5; to `CCN(CC)CCN(C)c1ccc(Cn2c(=O)[nH]c3c(N)nc(C(F)(F)F)cc32)cn1`, 1.3.
Still for that read-out and setting: then `Nc1nc(C(F)(F)F)cc2c1[nH]c(=O)n2Cc1ccc(NCCN2CCCCC2)nc1`, with 1.3; and `CN(CCN1CCCCC1)c1ccc(Cn2c(=O)[nH]c3c(N)nc(C(F)(F)F)cc32)cn1`, with 1.8.
The same measure, in the same setting: then `Nc1nc(C(F)(F)F)cc2c1[nH]c(=O)n2Cc1ccc(OCCN2CCCC2)nc1`, with 1.2; and `CN(C)CCNc1ccc(Cn2c(=O)[nH]c3c(N)nc(C(F)(F)F)cc32)cn1`, with 0.7.
The molecule `CN(C)CCOc1ccc(Cn2c(=O)[nH]c3c(N)nc(C(F)(F)F)cc32)cn1` gave a logD of 1.2.
The same measure, in the same setting: then `COCCN1CCN(c2ccc(Cn3c(=O)[nH]c4c(N)nc(C(F)(F)F)cc43)cn2)CC1`, with 2.3.

The next data set in a line: in vitro. Conditions: rat, liver microsomes.
The molecule `CN(C)CCN1CCN(c2ccc(Cn3c(=O)[nH]c4c(N)nc(C(F)(F)F)cc43)cn2)CC1` returned a microsomal CLint below 8.5 µL/min/mg.
On the same count and under the same terms, then `Nc1nc(C(F)(F)F)cc2c1[nH]c(=O)n2Cc1ccc(NCCO)nc1`, with below 8.5 µL/min/mg; and `CN(C)CCN(C)c1ccc(Cn2c(=O)[nH]c3c(N)nc(C(F)(F)F)cc32)cn1`, with 11 µL/min/mg.
On the same count and under the same terms, to `Nc1nc(C(F)(F)F)cc2c1[nH]c(=O)n2Cc1ccc(NCCN2CCCC2)nc1` belongs below 8.5 µL/min/mg.
On the same count and under the same terms, then `Nc1nc(C(F)(F)F)cc2c1[nH]c(=O)n2Cc1ccc(NCc2ccccc2)nc1`, with 16 µL/min/mg.
With `CN1CCN(CCN(C)c2ccc(Cn3c(=O)[nH]c4c(N)nc(C(F)(F)F)cc43)cn2)CC1`, the microsomal CLint came out at 15 µL/min/mg.
Same read-out and setting: to `CCN(CC)CCN(C)c1ccc(Cn2c(=O)[nH]c3c(N)nc(C(F)(F)F)cc32)cn1` belongs 11 µL/min/mg; to `Nc1nc(C(F)(F)F)cc2c1[nH]c(=O)n2Cc1ccc(NCCN2CCCCC2)nc1`, 16 µL/min/mg.
On the same count and under the same terms, then `CN(CCN1CCCCC1)c1ccc(Cn2c(=O)[nH]c3c(N)nc(C(F)(F)F)cc32)cn1`, with 13 µL/min/mg.
Still for that read-out and setting: to `Nc1nc(C(F)(F)F)cc2c1[nH]c(=O)n2Cc1ccc(OCCN2CCCC2)nc1` belongs 9 µL/min/mg; to `CN(C)CCNc1ccc(Cn2c(=O)[nH]c3c(N)nc(C(F)(F)F)cc32)cn1`, 16 µL/min/mg.
In turn, `CN(C)CCOc1ccc(Cn2c(=O)[nH]c3c(N)nc(C(F)(F)F)cc32)cn1` came in with a microsomal CLint of 24 µL/min/mg.
The same measure, in the same setting: to `COCCN1CCN(c2ccc(Cn3c(=O)[nH]c4c(N)nc(C(F)(F)F)cc43)cn2)CC1` belongs 9 µL/min/mg.

Another data set is described as follows: Thermodynamic solubility of compound at physiological pH. In kind it is physicochemical. Conditions: read-out: Therm_solubility.
For `CN(C)CCNc1ccc(Cn2c(=O)[nH]c3c(N)nc(C(F)(F)F)cc32)cn1`, the solubility thermodynamic worked out at 483 µg/mL (≈ 1220 µM).

A short description of the next data set: in vitro. The settings on record: rat, cytosol.
Take `Nc1nc(C(F)(F)F)cc2c1[nH]c(=O)n2Cc1ccc(NCCO)nc1`: the half-life stood at 3.27 h.
The same measure, in the same setting: to `Nc1nc(C(F)(F)F)cc2c1[nH]c(=O)n2Cc1ccc(NCc2ccccc2)nc1` belongs 4.17 h.
In turn, `CN(C)CCNc1ccc(Cn2c(=O)[nH]c3c(N)nc(C(F)(F)F)cc32)cn1` came in with a half-life of 6.17 h.
